Measured values as given in ChEMBL document CHEMBL1145265, “Chiral discrimination in binding of enantiomers of 2-(aminoalkoxy)-substituted 4-(2-thienyl)pyrimidines and 4,6-bis(2-thienyl)pyrimidines with duplex DNA” (Bioorg Med Chem Lett, 2005).

Each compound was assayed on Calf thymus DNA (assay: Ratio of binding constant of S-enantiomer and R-enantiomer towards sonicated calf thymus DNA). Details: Bos taurus.
Assay type: nucleic-acid assay

Compared with Cc1cnc(OCC2CCCN2)nc1-c1cccs1 (configuration not stated), Cc1c(-c2cccs2)nc(OCC2CCCN2)nc1-c1cccs1 (configuration not stated) is higher in Ratio: 1.4 for the first, 1.8 for the second.

First: Cc1c(-c2cccs2)nc(OCCN)nc1-c1cccs1
Second: Cc1c(-c2cccs2)nc(OCC(C)N)nc1-c1cccs1 (configuration not stated)
The Ratio of the first is higher: 2.2 for the first, 1.5 for the second.

First: CC(C)C(N)COc1nc(-c2cccs2)cc(-c2cccs2)n1 (configuration not stated)
Second: CC(N)COc1nc(-c2cccs2)cc(-c2cccs2)n1 (configuration not stated)
The Ratio of the first is higher: 2.2 for the first, 1.2 for the second.

Going from NCCOc1nc(-c2cccs2)cc(-c2cccs2)n1 to CCC(N)COc1nc(-c2cccs2)cc(-c2cccs2)n1 (configuration not stated), the Ratio falls from 2.7 to 1.4.

Compared with Cc1c(-c2cccs2)nc(OCC(N)C(C)C)nc1-c1cccs1 (configuration not stated), CCC(N)COc1nc(-c2cccs2)c(C)c(-c2cccs2)n1 (configuration not stated) is higher in Ratio: 1.5 for the first, 1.6 for the second.

First: c1csc(-c2cc(-c3cccs3)nc(OCC3CCCN3)n2)c1 (configuration not stated)
Second: Cc1cnc(OCC(N)C(C)C)nc1-c1cccs1 (configuration not stated)
The Ratio of the first is higher: 2.4 for the first, 1.6 for the second.
